Data reported in article PMC2652713, “Molecular Blocking of CD23 Supports Its Role in the Pathogenesis of Arthritis” (PLoS ONE, 2009).

Legend:
[1] = test system: human CD23+ monocyte-derived macrophages; test: Inflammatory gene transcription array in CD23-activated macrophages of healthy donors; format: cell-based
Method: Figure 3 Inhibition of inflammatory gene transcription by p30A in CD23-stimulated macrophages. Human CD23^+ monocyte-derived macrophages were incubated with cross-linking CD23-McAb (20 µg/ml) alone or following 1 h pre-incubation with 10 µg/ml of p30A. Controls, activated cells with/without p30A pre-incubation are figured. IL-1β, TNF-α and actin (ACT) mRNA location are indicated by arrows. Shown is one representative experiment out of three. TEXT PRINTED IN THE PICTURE: p30A: Expressed Genes: 28 / 114 (Activated + p30A)
(§1) Monocytes or macrophages were activated through CD23 pathway: while monocytes/macrophages from RA patients express CD23, monocytes from healthy donors must be pre-activated to express surface CD23 as described. This pre-activation was obtained by incubation of healthy monocytes with recombinant human IL-4 (20 ng/ml) during 48 h at 37°C; After washing, all cell populations were tested by flow cytometry for their surface CD23 expression (>80% CD23^+) and then incubated in the presence of cross-linking CD23-MAb (clones 135 or DM2, IgG1k, 20 µg/ml) during 48–72 h, or IgE and anti-IgE as described, [17]. When indicated, peptides were added to the cells 2 h prior to their activation. Cells supernatants were then analyzed for their nitric oxide content (see below) and for the presence of cytokines: levels of TNF-α and IL-6 were determined in duplicates for each sample by a specific ELISA (R&D, Paris, France) while levels of IL-1β, IL-8 and IL-10 was determined using FlowCytomix Human Th1/Th2 Kit as recommended (Bender Medsystems, Vienna, Austria).
Following cultures, total RNA was extracted using RNeasy kit (Qiagen, Hilden, Germany). Synthesis, purification and hybridization of biotin-labeled cRNA (6 µg) to custom array membranes were performed according to manufacturer's recommendations (Oligo GEArray® Human Inflammatory Cytokines and Receptors Microarray, ref OHS-011, Superarray Bioscience, Frederick, MD). After local background subtraction, average signal intensity from duplicate spots was compared to values obtained for housekeeping genes using AlphaImager HP automatic image capture software (Alpha-Innotec, San Leandro, CA). For each gene, modulation was defined as the relative expression value for stimulated vs. control sample.

[2] = Weight and intestinal bleeding in AIA rats; format: in vivo, rat, Female Lewis; conditions: 50 days, data not shown
Method: Adjuvant arthritis was induced in six week-old animals by subcutaneous injection at the base of the tail of 300 µl containing 1.8 mg of inactivated Mycobacterium butyricum (Difco Laboratories, Detroit, MI) diluted in emulsion of 8 ml Vaseline, 1 ml polysorbate 80, and 1 ml PBS (Phosphate Buffer Saline, Eurobio). Rats were boosted one week later following the same procedure. Observation was conducted for up to 50 days following immunization for clinical signs of arthritis. Rats were divided in different groups of 8 rats. Groups were treated with five injections (every 2 days) of either p30A (10, 50 or 100 mg in a PBS solution), pCtl, hydrocortisone (Sigma Aldrich) or PBS solution. Injections were initiated two days after the appearance of first arthritic symptoms (therapeutic) or on the first day of immunization (preventive). […] The severity of AIA in each paw was quantified daily using an ordinal clinical score measurement from 0 to 4 as follows: no signs of inflammation ( = 0); swelling alone (>2 fold paw diameter) ( = 1) or swelling/immobility ( = 2) of one paw; swelling ( = 3) or swelling/immobility ( = 4) of two paws. Weight evolution of rats was measured daily. […] Quantification of TNF-α and IL-1β in rat cell supernatants was performed using appropriate ELISA kits and according to manufacturer's recommendations (Biosource, Montrouge, France).

[3] = test system: human CD23+ macrophages; test: IgE-mediated activation of human CD23+ macrophages; format: cell-based
Method: as §1

[4] = test system: rat CD23+ macrophages; test: IgE-mediated activation of rat CD23+ macrophages; format: cell-based
Method: Peptides were added one hour prior to cell activation.

Substance: FHENWPS [p30A]
- inhibition of expression of inflammatory mRNAs ([1]; CD23-activated macrophages of healthy donors): inhibits the expression of most of the above mRNAs
- expressed mRNAs: Chemokine Receptors ([1]; activated cells + p30A): CCR1, CCR5, CCR7, CXCR4
- expressed mRNAs: Chemokines Other subfamily members ([1]; activated cells + p30A): BCL6, BLR1, C3
- expressed mRNAs: Chemokines Subfamily A (Cys-Cys) ([1]; activated cells + p30A): CCL15, CCL17, CCL18, CCL19, CCL3, CCL4, CCL5
- expressed mRNAs: Interleukins and their Receptors ([1]; activated cells + p30A): IL10RA, IL10RB, IL11RA, IL17R, IL1R1, IL1R2, IL2RA, IL2RG, IL6R
- expressed mRNAs: Other related genes ([1]; activated cells + p30A): LTB4R, MIF
- expressed mRNAs: TNF Ligands and Receptors ([1]; activated cells + p30A): LTA (LT- α), LTB (LT-β), TNFRSF1B (TNFR2)
- number of expressed genes detected/114 ([1]; activated cells + p30A (10 µg/ml, 1 h pre-incubation; CD23-McAb 20 µg/ml), comparators: non activated cells 14, activated cells 53): 28
- intestinal bleeding [2]: neither intestinal bleeding was observed
- weight loss [2]: no weight loss
- IgE-mediated activation of human CD23+ macrophages [3]: decreased IgE-mediated activation of both human and rat CD23^+ macrophages
- IgE-mediated activation of rat CD23+ macrophages [4]: decreased IgE-mediated activation of both human and rat CD23^+ macrophages
